In brackets after ≈: the same amount, converted by molar mass.
Columns and labels:
Format in all cases: cell-based
[1] = system: P. rettgeri UC 339; assay: standard microplate test in BHI Agar (MIC); conditions: Providencia rettgeri, UC339, 37°, 20 hours, read-out: Minimum Inhibitory Concentration
Experimental: (§1) The compounds VII, XI, XVβ, XVα and XVI were tested in a standard microplate test in BHI (Brain Heart Infusion) Agar at a concentration of 1 mg./ml. and dilutions thereof at 37° incubation temperature. The end points are read at 20 hours. BHI Agar is supplied by Difco Laboratories, Detroit, Michigan, U.S.A. and has the following compositions: […]

[2] = system: Ps. aeruginosa UC 95; assay: standard microplate test in BHI Agar (MIC); conditions: Pseudomonas aeruginosa, UC95, 37°, 20 hours, read-out: Minimum Inhibitory Concentration
Experimental: as §1

[3] = system: S. aureus UC 76; assay: standard microplate test in BHI Agar (MIC); conditions: Staphylococcus aureus, UC76, 37°, 20 hours, read-out: Minimum Inhibitory Concentration
Experimental: as §1

[4] = system: S. marcescens UC 131; assay: standard microplate test in BHI Agar (MIC); conditions: Serratia marcescens, UC131, 37°, 20 hours, read-out: Minimum Inhibitory Concentration
Experimental: as §1

[5] = system: S. faecalis UC 694; assay: standard microplate test in BHI Agar (MIC); conditions: Enterococcus faecalis, UC694, 37°, 20 hours, read-out: Minimum Inhibitory Concentration
Experimental: as §1

[6] = system: S. pyogenes UC 152; assay: standard microplate test in BHI Agar (MIC); conditions: Streptococcus pyogenes, UC152, 37°, 20 hours, read-out: Minimum Inhibitory Concentration
Experimental: as §1

[7] = system: K. pneumoniae UC 58; assay: standard microplate test in BHI Agar (MIC); conditions: Klebsiella pneumoniae, UC58, 37°, 20 hours, read-out: Minimum Inhibitory Concentration
Experimental: as §1

[8] = system: B. subtilis UC 564; assay: standard disc plate assay, zones of inhibition (12.5 mm paper discs)
From the text: (§2) The compounds of formulas (V, VII, IX, XI, XIV, XVI, and XIX) are active as antibacterials and can be used in various environments to erradicate or control susceptible microorganisms. Tables I and II set forth the in vitro antibacterial test results for representative compounds of the present invention. The results were obtained with a standard disc plate assay using 12.5 mm paper discs.

[9] = system: Ps. aeruginosa UC 95; assay: as above; conditions: 1 mg/ml
From the text: as §2

[10] = system: B. cereus UC 3145; assay: as above; conditions: 1 mg/ml
From the text: as §2

[11] = system: P. vulgaris UC 93; assay: as above
From the text: as §2

[12] = system: E. coli UC 51; assay: as above
From the text: as §2

[13] = system: S. schottmuelleri UC 126; assay: as above
From the text: as §2

[14] = system: S. aureus UC 80; assay: as above
From the text: as §2

[15] = system: K. pneumoniae UC 57; assay: as above
From the text: as §2

## C[C@@]1(O)C[C@H](N)C[C@H](N)[C@H]1O[C@H]1O[C@H](CN)[C@@H](O)[C@H](O)[C@H]1N [6-Deoxy-5-methyl-neamine]
[1]
  MIC: > 500 µg/mL
[2]
  MIC: > 500 µg/mL
[3]
  MIC: 15.6 µg/mL (≈ 48.7 µM)

## NC[C@H]1O[C@H](O[C@H]2[C@H](O)C[C@H](N)C[C@@H]2N)[C@H](N)[C@@H](O)[C@@H]1O [6-deoxyneamine (XI), 6-Deoxyneamine]
[1]
  MIC: 250 µg/mL (≈ 816 µM)
[2]
  MIC: > 500 µg/mL
[4]
  MIC: 250 µg/mL (≈ 816 µM)
[5]
  MIC: > 500 µg/mL
[6]
  MIC: 15.6 µg/mL (≈ 50.9 µM)
[7]
  MIC: 7.8 µg/mL (≈ 25.5 µM)

## NC[C@H]1O[C@H](O[C@H]2[C@H](O)[C@@H](O)[C@H](N)C[C@@H]2N)[C@H](N)[C@@H](O)[C@@H]1O [Neamine]
[8]; 0.1 mg/ml
  Zones of Inhibition: 28 mm
[8]; 1 mg/ml
  Zones of Inhibition: 37 mm
[9]
  Zones of Inhibition: 18 mm
[10]
  Zones of Inhibition: 23 mm
[11]; 0.1 mg/ml
  Zones of Inhibition: 15 mm
[11]; 1 mg/ml
  Zones of Inhibition: 28 mm
[12]; 0.1 mg/ml
  Zones of Inhibition: 18 mm
[12]; 1 mg/ml
  Zones of Inhibition: 25 mm
[13]; 0.1 mg/ml
  Zones of Inhibition: 15 mm
[13]; 1 mg/ml
  Zones of Inhibition: 23 mm
[14]; 0.1 mg/ml
  Zones of Inhibition: 18 mm
[14]; 1 mg/ml
  Zones of Inhibition: 26 mm
[15]; 0.1 mg/ml
  Zones of Inhibition: 26 mm
[15]; 1 mg/ml
  Zones of Inhibition: 32 mm

— patent US4252970A, “6-Deoxyneamines” (The Upjohn Company, priority 1979, dated 1981)
